In EP4763845A1, “CYANO AROMATIC RING DERIVATIVE AND PHARMACEUTICAL USE THEREOF” (Haisco Pharmaceutical Group Co., Ltd., priority 2023, dated 2025) one finds DC50 data, which are given here for 17 compounds.

The test deals with T1, AR protein (Homo sapiens, UniProt P10275).
T1 construct: VCap is a human prostate cancer cell line purchased from ATCC; host or cells: VCaP human prostate cancer cells
T1 sequence (P10275 1-920): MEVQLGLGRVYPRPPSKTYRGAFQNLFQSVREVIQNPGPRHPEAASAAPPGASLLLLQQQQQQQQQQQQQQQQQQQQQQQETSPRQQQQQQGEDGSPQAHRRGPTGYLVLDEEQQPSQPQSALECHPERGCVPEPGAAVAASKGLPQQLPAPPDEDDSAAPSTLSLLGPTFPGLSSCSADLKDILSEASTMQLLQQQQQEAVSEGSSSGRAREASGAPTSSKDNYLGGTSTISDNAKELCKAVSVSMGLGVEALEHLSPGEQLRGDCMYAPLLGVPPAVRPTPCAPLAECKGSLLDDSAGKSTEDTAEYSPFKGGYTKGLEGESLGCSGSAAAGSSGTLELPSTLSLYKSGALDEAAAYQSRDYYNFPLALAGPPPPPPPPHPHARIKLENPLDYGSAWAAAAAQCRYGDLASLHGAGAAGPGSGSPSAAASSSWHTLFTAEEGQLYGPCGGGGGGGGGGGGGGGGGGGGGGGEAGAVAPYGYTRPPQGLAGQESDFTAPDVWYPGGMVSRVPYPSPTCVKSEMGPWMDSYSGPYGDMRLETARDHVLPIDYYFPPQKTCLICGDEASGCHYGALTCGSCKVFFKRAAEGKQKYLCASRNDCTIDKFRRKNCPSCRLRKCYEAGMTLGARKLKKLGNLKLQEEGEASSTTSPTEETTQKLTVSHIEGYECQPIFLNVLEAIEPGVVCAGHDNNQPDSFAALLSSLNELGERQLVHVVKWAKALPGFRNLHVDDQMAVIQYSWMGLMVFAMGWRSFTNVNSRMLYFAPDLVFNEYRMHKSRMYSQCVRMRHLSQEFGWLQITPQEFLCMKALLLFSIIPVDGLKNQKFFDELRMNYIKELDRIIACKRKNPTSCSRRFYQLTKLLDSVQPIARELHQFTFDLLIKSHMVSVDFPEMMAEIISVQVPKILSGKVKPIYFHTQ
In words: Detection of AR degradation in VCaP cells (automated western blot). In kind it is cell-based. Conditions: degradation of AR protein in VCaP cells, 24 hours incubation; read-out: DC50. On the procedure: VCap is a human prostate cancer cell line purchased from ATCC and cultured under the following conditions: DMEM + 10% FBS + 1% penicillin-streptomycin solution. The cells were cultured in a 37°C, 5% CO2 incubator. The cells were seeded in a 6-well plate, with 5 × 10^5 cells/well. After seeding, compounds at various concentrations were added, and the plate was incubated for 24 hours in the 37°C, 5% CO2 incubator. Following incubation, the cells were harvested and RIPA lysis buffer (beyotime, Cat. P0013B) was added. The cells were lysed on ice for 15 minutes and centrifuged at 12,000 rpm at 4°C for 10 minutes. The supernatant protein samples were collected and the protein was quantified using the BCA kit (Beyotime, Cat. P0009). Then the protein was diluted to 0.25 mg/mL. The expressions of AR (CST, Cat.5153S) and the internal reference β-actin (CST, Cat. 3700S) were detected using a fully automated western blot quantitative analyser (Proteinsimple). Using the "Compass for SW" software, the relative peak area of AR was calculated when the internal reference area was 10,000. The proportion of AR relative to the solvent control group at various drug concentrations was calculated according to Equation (1), where ARtreat represents the relative peak area of the compound-treated group, and ARsolvent represents the relative peak area of the solvent control group. The processed data obtained from Equation (1) were analysed using GraphPad Prism 8.3.0 software, and the DC50 value was calculated using a four-parameter nonlinear regression model. The degradation rate at a specified concentration was determined as 100-AR%. AR% = ARtreat/ ARsolvent × 100% [formula]

In the case of `COc1cc(O[C@H]2C(C)(C)[C@H](NC(=O)c3ccc(N4CCC(CN5CCN6c7cc(F)c(C(=O)N[C@@H]8CCC(=O)NC8=O)cc7CC[C@H]6C5)CC4)cc3)C2(C)C)ccc1C#N` [Compound 14], the half-maximal degradation concentration (DC50) is less than 100 nM.

As to `COc1cc(O[C@H]2C(C)(C)[C@H](NC(=O)c3ccc(N4CCC(CN5CCN6c7ccc(N8CCC(=O)NC8=O)cc7CCC6C5)CC4)cc3)C2(C)C)ccc1C#N` (some centres unmarked) [Compound 15], the half-maximal degradation concentration (DC50) was less than 100 nM.

For the compound `[2H]C([2H])([2H])Oc1cc(O[C@H]2C(C)(C)[C@H](NC(=O)c3ccc(N4CCC5(CC4)CC(CN4CCN6c7cc(F)c(C8CCC(=O)NC8=O)cc7CC[C@@H]6C4)C5)cc3)C2(C)C)ccc1C#N` (some centres unmarked) [Compound 42], the DC50 is less than 100 nM.

Take `[2H]C([2H])([2H])Oc1cc(O[C@H]2C(C)(C)[C@H](NC(=O)c3ccc(N4CCC5(CC4)CC(CN4CCN6c7cc(F)c(C8CCC(=O)NC8=O)cc7CC[C@H]6C4)C5)cc3)C2(C)C)ccc1C#N` (some centres unmarked) [Compound 43]: the half-maximal degradation concentration (DC50) was less than 100 nM.

In the case of `CC1(C)[C@H](NC(=O)c2ccc(N3CCC(CN4CCN5c6cc(F)c(C7CCC(=O)NC7=O)cc6CC[C@@H]5C4)CC3)cc2)C(C)(C)[C@H]1Oc1ccc(C#N)c(Cl)c1` (some centres unmarked) [Compound 48], the 50% degradation concentration (DC50) is less than 100 nM.

`CC1(C)[C@H](NC(=O)c2ccc(N3CCC(CN4CCN5c6cc(F)c(C7CCC(=O)NC7=O)cc6CC[C@H]5C4)CC3)cc2)C(C)(C)[C@H]1Oc1ccc(C#N)c(Cl)c1` (some centres unmarked) [Compound 49]: the DC50 is less than 100 nM.

On to `CC1(C)[C@H](NC(=O)c2ccc(N3CCC(CN4CCN5c6cc(F)c(N7CCC(=O)NC7=O)cc6CC[C@@H]5C4)CC3)cc2)C(C)(C)[C@H]1Oc1ccc(C#N)c(Cl)c1` [Compound 50], for which the DC50 is less than 100 nM.

For `CC1(C)[C@H](NC(=O)c2ccc(N3CCC(CN4CCN5c6cc(F)c(N7CCC(=O)NC7=O)cc6CC[C@H]5C4)CC3)cc2)C(C)(C)[C@H]1Oc1ccc(C#N)c(Cl)c1` [Compound 51], the half-maximal degradation concentration (DC50) is less than 100 nM.

In the case of `CC1(C)[C@H](NC(=O)c2ccc(N3CCC4(CC3)CC(CN3CCN5c6cc(F)c(C7CCC(=O)NC7=O)cc6CC[C@@H]5C3)C4)cc2)C(C)(C)[C@H]1Oc1ccc(C#N)c(Cl)c1` (some centres unmarked) [Compound 54], the DC50 was less than 100 nM.

Consider `CC1(C)[C@H](NC(=O)c2ccc(N3CCC4(CC3)CC(CN3CCN5c6cc(F)c(C7CCC(=O)NC7=O)cc6CC[C@H]5C3)C4)cc2)C(C)(C)[C@H]1Oc1ccc(C#N)c(Cl)c1` (some centres unmarked) [Compound 55], for which the 50% degradation concentration (DC50) is less than 100 nM.

Regarding `CC1(C)[C@H](NC(=O)c2ccc(N3CCC4(CC3)CC(CN3CCN5c6cc(F)c(N7CCC(=O)NC7=O)cc6CC[C@@H]5C3)C4)cc2)C(C)(C)[C@H]1Oc1ccc(C#N)c(Cl)c1` [Compound 56], the DC50 is less than 100 nM.

`CC1(C)[C@H](NC(=O)c2ccc(N3CCC4(CC3)CC(CN3CCN5c6cc(F)c(C(=O)N[C@H]7CCC(=O)NC7=O)cc6CC[C@@H]5C3)C4)cc2)C(C)(C)[C@H]1Oc1ccc(C#N)c(Cl)c1` [Compound 58]: the DC50 is less than 100 nM.

With `CC1(C)[C@H](NC(=O)c2ccc(N3CCC4(CC3)CC(CN3CCN5c6cc(F)c(C7CCC(=O)NC7=O)cc6CC[C@@H]5C3)C4)cc2)C(C)(C)[C@H]1Oc1ccc(C#N)c2ncccc12` (some centres unmarked) [Compound 72], the DC50 was less than 100 nM.

Take `Cc1cc(O[C@H]2C(C)(C)[C@H](NC(=O)c3ccc(N4CCC(CN5CCN6c7cc(F)c(C8CCC(=O)NC8=O)cc7CC[C@H]6C5)CC4)cc3)C2(C)C)cc(C)c1C#N` (some centres unmarked) [Compound 78]: the half-maximal degradation concentration (DC50) was less than 100 nM.

Take `Cc1cc(O[C@H]2C(C)(C)[C@H](NC(=O)c3ccc(N4CCC(CN5CCN6c7cc(F)c(N8CCC(=O)NC8=O)cc7CC[C@H]6C5)CC4)cc3)C2(C)C)cc(C)c1C#N` [Compound 80]: the DC50 was less than 100 nM.

As for `Cc1cc(O[C@H]2C(C)(C)[C@H](NC(=O)c3ccc(N4CCC(CN5CCN6c7cc(F)c(N8CCC(=O)NC8=O)cc7CC[C@@H]6C5)CC4)cc3)C2(C)C)cc(C)c1C#N` [Compound 82], the 50% degradation concentration (DC50) is less than 100 nM.

Take `COc1cc(O[C@H]2C(C)(C)[C@H](NC(=O)c3ccc(N4CCC(CN5CCN6c7ncc(C8CCC(=O)NC8=O)cc7CC[C@H]6C5)CC4)cc3)C2(C)C)ccc1C#N` (some centres unmarked) [Compound 83]: the DC50 is less than 100 nM.
